Measured values as given in patent US12145944B2, “Imidazopyrimidines as EED inhibitors and the use thereof” (THE REGENTS OF THE UNIVERSITY OF MICHIGAN, priority 2019, dated 2024).
Where two headings read alike, the source gives them in different places.

How the values were obtained:
[1] = tested on: KARPAS422 human B cell lymphoma cell; experiment: Cell proliferation, KARPAS422, 7 day treatment (WST-8); type: cell-based; details: Homo sapiens, KARPAS-422, 168 h
Experimental: (§1) “N/A” stands for “not assessed”.
Analysis of Cell Proliferation:
(§2) To assess the effect of PRC2 inhibition on cell growth, cells were seeded in 96-well cell culture plates at a density of 2 000-3 000 cells/well in 200 µL of culture medium, and treated with serially diluted compounds for 7 days at 37° C. in an atmosphere of 5% CO2. Cell growth was evaluated by a […] WST-8 assay (Dojindo Molecular Technologies) using a Tecan Infinite M1000 multimode microplate reader (Tecan, Morrisville, NC). The WST-8 reagent was added to the plate, incubated for 1-4 h, and read at 450 nm. The readings were normalized to the DMSO-treated cells, and the IC50 was calculated by nonlinear regression analysis using GraphPad Prism 6 software

Pfeiffer cell line = experiment: Anti-proliferative activity, Pfeiffer cell line, 7 day treatment; type: cell-based; details: Homo sapiens, 168 h
Experimental: as §1, §2

[2] = anti-proliferative IC50, Karpas 422 cell line, 7 day treatment, read-out: Karpas Cell line
[3] = anti-proliferative IC50, Pfeiffer cell line, 7 day treatment, read-out: Pfeiffer Cell line
[4] = anti-proliferative IC50 class, Karpas 422 cell line, 7 day treatment, read-out: Karpas Cell line
[5] = anti-proliferative IC50 class, Pfeiffer cell line, 7 day treatment, read-out: Pfeiffer Cell line

| SMILES | IC50 [1, 2] | IC50 [1, 4] | IC50 (Pfeiffer cell line; [5]) | other results |
| --- | --- | --- | --- | --- |
| Fc1ccc2c(c1CNc1ncc3c4c(ncn14)COCc1ncccc1-3)CCO2 [Cpd. No. 2, N-((5-fluoro-2,3-dihydrobenzofuran-4-yl)methyl)-3H,5H-4-oxa-2,6,11,12a-tetraazabenzo[4,5]cycloocta[1,2,3-cd]inden-12-amine] | > 100 nM | – | – | IC50 (Pfeiffer cell line; [3]): > 100 nM |
| O=C1Nc2ccccc2-c2cnc(NCc3c(F)ccc4c3CCO4)n3cnc1c23 [Cpd. No. 3, 11-(((5-fluoro-2,3-dihydrobenzofuran-4-yl)methyl)amino)-2,4,10,11a-tetraazadibenzo[cd,f]azulen-3(4H)-one] | – | – | – | IC50 (Pfeiffer cell line; [3]): 84 nM |
| O=C1OCc2ncccc2-c2cnc(NCc3c(F)ccc4c3CCO4)n3cnc1c23 [Cpd. No. 12, 12-(((5-fluoro-2,3-dihydrobenzofuran-4-yl)methyl)amino)-3H,5H-4-oxa-2,6,11,12a-tetraazabenzo[4,5]cycloocta[1,2,3-cd]inden-3-one] | 3.84 nM | – | – | IC50 (Pfeiffer cell line; [3]): 0.65 nM |
| O=C1NCc2ncccc2-c2cnc(NCc3c(F)ccc4c3CCO4)n3cnc1c23 [Cpd. No. 16, 12-(((5-fluoro-2,3-dihydrobenzofuran-4-yl)methyl)amino)-4,5-dihydro-3H-2,4,6,11,12a-pentaazabenzo[4,5]cycloocta[1,2,3-cd]inden-3-one] | 14.7 nM | – | – | IC50 (Pfeiffer cell line; [3]): 3.39 nM |
| O=C1c2ncn3c(NCc4c(F)ccc5c4CCO5)ncc(c23)-c2cnc(C(F)(F)F)cc2CN1C1CC1 [Cpd. No. 36, 4-cyclopropyl-12-(((5-fluoro-2,3-dihydrobenzofuran-4-yl)methyl)amino)-7-(trifluoromethyl)-4,5-dihydro-3H-2,4,8,11,12a-pentaazabenzo[4,5]cycloocta[1,2,3-cd]inden-3-one] | 5.66 nM | – | – | IC50 (Pfeiffer cell line; [3]): 1.04 nM |
| Cc1ccc2c(n1)CS(=O)(=O)c1ncn3c(NCc4c(F)ccc5c4CCO5)ncc-2c13 [Cpd. No. 95, 11-(((5-fluoro-2,3-dihydrobenzofuran-4-yl)methyl)amino)-6-methyl-4H-3-thia-2,5,10,11a-tetraazadibenzo[cd,f]azulene 3,3-dioxide] | 0.89 nM | – | – | IC50 (Pfeiffer cell line; [3]): 0.023 nM |
| CS(=O)(=O)c1ncn2c(NCc3c(F)ccc4c3CCO4)ncc(-c3ccccc3)c12 [Cpd. No. 99, N-((5-fluoro-2,3-dihydrobenzofuran-4-yl)methyl)-1-(methylsulfonyl)-8-phenylimidazo[1,5-c]pyrimidin-5-amine] | – | – | – | IC50 ([1]; read-out: Karpas Cell line (nM)): 0.88 nM; IC50 (Pfeiffer cell line; Pfeiffer, read-out: Pfeiffer Cell line (nM)): 0.19 nM |
| Cc1ccc2c(n1)CN(C(C)C)C(=O)c1ncn3c(NCc4c(F)ccc5c4CCO5)ncc-2c13 [E 1, 12-(((5-fluoro-2,3-dihydrobenzofuran-4-yl)methyl)amino)-4-isopropyl-7-methyl-4,5-dihydro-3H-2,4,6,11,12a-pentaazabenzo[4,5]cycloocta[1,2,3-cd]inden-3-one] | – | < 10 nM | < 10 nM | – |
| Cc1cc2c(cn1)-c1cnc(NCc3c(F)ccc4c3CCO4)n3cnc(c13)C(=O)N(C(C)C)C2 [E 2, 12-(((5-fluoro-2,3-dihydrobenzofuran-4-yl)methyl)amino)-4-isopropyl-7-methyl-4,5-dihydro-3H-2,4,8,11,12a-pentaazabenzo[4,5]cycloocta[1,2,3-cd]inden-3-one] | – | < 10 nM | < 10 nM | – |
| CC(C)N1Cc2cc(C#N)ccc2-c2cnc(NCc3c(F)ccc4c3CCO4)n3cnc(c23)C1=O [E 4, 12-(((5-fluoro-2,3-dihydrobenzofuran-4-yl)methyl)amino)-4-isopropyl-3-oxo-4,5-dihydro-3H-2,4,11,12a-tetraazabenzo[4,5]cycloocta[1,2,3-cd]indene-7-carbonitrile] | – | < 10 nM | < 10 nM | – |
| O=C1c2ncn3c(NCc4c(F)ccc5c4CCO5)ncc(c23)-c2cnc(C(F)(F)F)cc2CN1C1CCC1 [E 5, 4-cyclobutyl-12-(((5-fluoro-2,3-dihydrobenzofuran-4-yl)methyl)amino)-7-(trifluoromethyl)-4,5-dihydro-3H-2,4,8,11,12a-pentaazabenzo[4,5]cycloocta[1,2,3-cd]inden-3-one] | – | < 10 nM | < 10 nM | – |
| Cc1ccc2c(n1)CN(CC(F)F)C(=O)c1ncn3c(NCc4c(F)ccc5c4CCO5)ncc-2c13 [E 6, 4-(2,2-difluoroethyl)-12-(((5-fluoro-2,3-dihydrobenzofuran-4-yl)methyl)amino)-7-methyl-4,5-dihydro-3H-2,4,6,11,12a-pentaazabenzo[4,5]cycloocta[1,2,3-cd]inden-3-one] | – | < 10 nM | < 10 nM | – |
| O=C1c2ncn3c(NCc4c(F)ccc5c4CCO5)ncc(c23)-c2ccc(C(F)(F)F)nc2CN1CC(F)F [E 8, 4-(2,2-difluoroethyl)-12-(((5-fluoro-2,3-dihydrobenzofuran-4-yl)methyl)amino)-7-(trifluoromethyl)-4,5-dihydro-3H-2,4,6,11,12a-pentaazabenzo[4,5]cycloocta[1,2,3-cd]inden-3-one] | – | < 10 nM | < 10 nM | – |
| Cc1cc2c(cn1)-c1cnc(NCc3c(F)ccc4c3CCO4)n3cnc(c13)C(=O)N(CC(F)F)C2 [E 9, 4-(2,2-difluoroethyl)-12-(((5-fluoro-2,3-dihydrobenzofuran-4-yl)methyl)amino)-7-methyl-4,5-dihydro-3H-2,4,8,11,12a-pentaazabenzo[4,5]cycloocta[1,2,3-cd]inden-3-one] | – | < 10 nM | < 10 nM | – |
| Cc1cnc2n1Cc1cc(C(F)(F)F)ncc1-c1cnc(NCc3c(F)ccc4c3CCO4)n3cnc-2c13 [E 10, N-((5-fluoro-2,3-dihydrobenzofuran-4-yl)methyl)-5-methyl-8-(trifluoromethyl)-6H-2,3,5a,9,12,13a-hexaazabenzo[4,5]cyclopenta[7,8]cycloocta[1,2,3-cd]inden-13-amine] | – | 10 to 100 nM | 10 to 100 nM | – |
| CC(C)N1Cc2cc(C(F)F)ncc2-c2cnc(NCc3c(F)ccc4c3CCO4)n3cnc(c23)C1=O [E 11, 7-(difluoromethyl)-12-(((5-fluoro-2,3-dihydrobenzofuran-4-yl)methyl)amino)-4-isopropyl-4,5-dihydro-3H-2,4,8,11,12a-pentaazabenzo[4,5]cycloocta[1,2,3-cd]inden-3-one] | – | < 10 nM | < 10 nM | – |
| CCc1ccc2c(n1)CN(CC(F)(F)F)C(=O)c1ncn3c(NCc4c(F)ccc5c4CCO5)ncc-2c13 [E 12, 7-ethyl-12-(((5-fluoro-2,3-dihydrobenzofuran-4-yl)methyl)amino)-4-(2,2,2-trifluoroethyl)-4,5-dihydro-3H-2,4,6,11,12a-pentaazabenzo[4,5]cycloocta[1,2,3-cd]inden-3-one] | – | < 10 nM | < 10 nM | – |
| CCOC(=O)c1ncn2c(NCc3c(F)ccc(OC)c3Cl)ncc(-c3ccccc3)c12 [compound 133, ethyl 5-((2-chloro-6-fluoro-3-methoxybenzyl)amino)-8-phenylimidazo[1,5-c]pyrimidine-1-carboxylate] | > 100 nM | – | – | – |
| CCOC(=O)c1ncn2c(NCc3cccc4c3OCO4)ncc(-c3ccccc3)c12 [compound 134, ethyl 5-((benzo[d][1,3]dioxol-4-ylmethyl)amino)-8-phenylimidazo[1,5-c]pyrimidine-1-carboxylate] | > 100 nM | – | – | – |
| CCOC(=O)c1ncn2c(NCc3c(F)ccc4c3CCO4)ncc(-c3ccccc3)c12 [compound 135, ethyl 5-(((5-fluoro-2,3-dihydrobenzofuran-4-yl)methyl)amino)-8-phenylimidazo[1,5-c]pyrimidine-1-carboxylate] | 7.07 nM | – | – | – |
| CNC(=O)c1ncn2c(NCc3ccccc3OC)ncc(-c3ccccc3)c12 [compound 136, 5-((2-methoxybenzyl)amino)-N-methyl-8-phenylimidazo[1,5-c]pyrimidine-1-carboxamide] | > 100 nM | – | – | – |
| CNC(=O)c1ncn2c(NCc3c(F)cccc3OC)ncc(-c3ccccc3)c12 [compound 137, 5-((2-fluoro-6-methoxybenzyl)amino)-N-methyl-8-phenylimidazo[1,5-c]pyrimidine-1-carboxamide] | > 100 nM | – | – | – |
| CNC(=O)c1ncn2c(NCc3c(F)ccc(F)c3OC)ncc(-c3ccccc3)c12 [compound 138, 5-((3,6-difluoro-2-methoxybenzyl)amino)-N-methyl-8-phenylimidazo[1,5-c]pyrimidine-1-carboxamide] | > 100 nM | – | – | – |
| CNC(=O)c1ncn2c(NCc3cc(OC)ccc3F)ncc(-c3ccccc3)c12 [compound 139, 5-((2-fluoro-5-methoxybenzyl)amino)-N-methyl-8-phenylimidazo[1,5-c]pyrimidine-1-carboxamide] | > 100 nM | – | – | – |
| CNC(=O)c1ncn2c(NCc3c(F)ccc(OC)c3Cl)ncc(-c3ccccc3)c12 [compound 140, 5-((2-chloro-6-fluoro-3-methoxybenzyl)amino)-N-methyl-8-phenylimidazo[1,5-c]pyrimidine-1-carboxamide] | > 100 nM | – | – | – |
| CNC(=O)c1ncn2c(NCc3cccc4c3OCO4)ncc(-c3ccccc3)c12 [compound 141, 5-((benzo[d][1,3]dioxol-4-ylmethyl)amino)-N-methyl-8-phenylimidazo[1,5-c]pyrimidine-1-carboxamide] | > 100 nM | – | – | – |
| CNC(=O)c1ncn2c(NCc3c(F)ccc4c3CCO4)ncc(-c3ccccc3)c12 [compound 142, 5-(((5-fluoro-2,3-dihydrobenzofuran-4-yl)methyl)amino)-N-methyl-8-phenylimidazo[1,5-c]pyrimidine-1-carboxamide] | > 100 nM | – | – | – |
